# System: w.1 AMATA Amaranthus tamariscinus, common waterhemp, sensitive biotype
# Experiment: Greenhouse experiment, weed control of w.1 (Example 3)
# Assay type: in vivo
# Conditions: for Weed control (%) w.1: greenhouse, sensitive biotype
smiles,measurement,setting,value
C#CCN1C(=O)C(F)(F)Oc2cc(F)c(-n3c(=O)n(C)c(=S)n(C)c3=O)cc21 [I.a.35],activity in words on sensitive weed w.1,summary of Example 3 table,very good activity
same,Weed control (%) w.1,use rate 2 g/ha,99%
same,Weed control (%) w.1,use rate 4 g/ha,100%

# — patent US10897903B2, “Method for controlling PPO resistant weeds” (BASF SE, priority 2016, dated 2021)
